Here are results for eight compounds from US12636275B2, “Pharmaceutical use of ketoamide-based compound” (Shanghai Institute of Materia Medica, Chinese Academy of …, priority 2020, dated 2026).

The target of one series is T1, 2019-nCoV 3CL protease (Severe acute respiratory syndrome coronavirus 2, UniProt P0DTD1).
T1 construct: against 3CL protease of 2019 novel coronavirus (2019-nCoV 3CL^pro)
Nature of the series: Inhibitory activity against 3CL protease of 2019 novel coronavirus (FRET). It counts as biochemical. As for the experimental part: To determine the inhibitory activity of the compound against 3CL protease of 2019 novel coronavirus (2019-nCoV 3CL^pro): the enzyme level inhibitory activity of inhibitors against 3CL protease was determined by fluorescence resonance energy transfer (FRET) technology. In a 96-well plate, 27.5 μL of buffer (20 mM Tris, 100 mM NaCl, 1 mM EDTA, pH 7.4) was added to each well, 2.5 μL compounds ([…], respectively) and 5 μL […] (final concentration was 3 μM) were added at the same time. Incubated at 37° C. for 15 min. Then 15 μL fluorescent substrate diluted with buffer (final concentration was 20 μM) was added. The fluorescence parameters were determined by Ge n5 fluorescence spectrophotometer. The excitation wavelength and emission wavelength were 340 nm and 490 nm respectively, kept at 37° C., and the data were read after 10 min. A negative control was used, in which no compound was added to the control, and the rest was the same.

Series [1] concerns 2019 novel coronavirus (2019-nCov). Description: Inhibitory activity on replication of 2019 novel coronavirus (cytopathic effect, MTS, RD cells). It counts as cell-based. To be noted: for virus inhibitory activity (in words): CQ as positive control, different concentration gradients; for EC50: Severe acute respiratory syndrome coronavirus 2, RD, read-out: EC50, inhibition of 2019-nCoV virus replication. (Cytopathic effects are the visible damage that an infection or toxin causes in cultured cells.)

The target of the next series is human cathepsin L (Homo sapiens, UniProt P07711). Description: Inhibitory activity against human cathepsin L (FRET, Z-Phe-Arg-AMC substrate). It counts as biochemical. The settings on record: pH 5.5, 25° C. As for the experimental part: To determine the inhibitory activity of the compound against human cathepsin L (CatL): the enzyme level inhibitory activity against cathepsin L was determined by fluorescence resonance energy transfer (FRET) technique. In a 96-well plate, 10 μL buffer (50 mM CH3COONa, pH 5.5, 1 mM DTT, 2 mM EDTA) was added to each well, while 0.2 μL of compound (final concentrations were 100 nM, 10 nM, 1 nM, 0.1 nM and 0.01 nM, respectively) and 10 μL cathepsin L were added, and incubated at 25° C. for 15 min. Then 10 μL fluorescent substrate (Z-Phe-Arg-AMC, final concentration was 20 μM) diluted with buffer was added. The fluorescence parameters were determined by Tecan Infinite 200pro fluorescence spectrophotometer. The excitation wavelength and emission wavelength were 360 nm and 465 nm respectively, kept at 25° C., and the data were read after 30 min. A negative control was used, in which no compound was added to the control, and the rest was the same.
human cathepsin L, sequence (P07711 114-333): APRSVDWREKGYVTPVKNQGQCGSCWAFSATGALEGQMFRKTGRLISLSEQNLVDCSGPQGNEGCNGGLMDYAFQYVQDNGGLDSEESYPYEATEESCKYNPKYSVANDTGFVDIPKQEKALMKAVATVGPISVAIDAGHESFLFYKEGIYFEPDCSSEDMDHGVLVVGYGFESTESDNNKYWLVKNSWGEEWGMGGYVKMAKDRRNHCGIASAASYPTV

Series [2] in a line: Toxicity test in SD rats with repeated intravenous administration. Type of series: in vivo. The source says:
The purpose of this experiment is to observe the potential toxicity of SD rats after intravenous DC406009 for 7 consecutive days and to determine the possible toxic target organs. To provide non-toxic dose and/or toxic dose for the subsequent toxicity test design and clinical trial protocol design. To assess the level of drug exposure in vivo, a toxicokinetic evaluation is accompanied.
36 SD rats were divided into 8 groups (3 in toxicity test group/gender/group, a total of 5 groups; 1 in toxic satellite group/gender/group, 3 groups), intravenous injection of solvent (5% DMSO/5% EtOH/40% PEG300/50% NaCl), 0.9% sodium chloride injection and DC406009 (5, 15, 30 mg/kg/day), once a day for 7 consecutive days, all animals were euthanized on Day 8. During the test, the following indicators were evaluated: toxicology (only samples were collected), clinical observation, body weight, food consumption, clinical pathology (hematology, hemagglutination, plasma biochemistry) and anatomical macroscopic morphological observation.

Series [3] has as its system 2019 novel coronavirus (2019-nCov). The settings on record: stated for positive control; read-out: EC50, inhibition of 2019-nCoV virus replication (positive compound CQ); cited from earlier work.

Molecules are shown by their SMILES. Like-named read-outs stand apart in the source and are kept apart here.

For the compound `O=C(NCc1ccccc1)C(=O)[C@H](C[C@@H]1CCCNC1=O)NC(=O)[C@H](CC1CCCCC1)NC(=O)c1cc2ccccc2o1` [Example A13, N—((S)-1-(((S)-4-(benzylamino)-3,4-dione-1-((S)-2-oxopiperidin-3-yl)but-2-yl)amino)-3-cyclohexyl-1-oxopropan-2-yl)-benzofuran-2-carboxamide], the concentration for half-maximal inhibition (IC50) (as a rule, the concentration that gives 50% inhibition) against 2019-nCoV 3CL protease (FRET, 37° C., substrate 20 μM) stood at 2.4 µM. For the same compound, in series [1], the “virus inhibitory activity (in words)” value is reported as “excellent virus inhibitory activity” and the 50% effective concentration (EC50) (usually the concentration at which the effect is half-maximal) was found to be 9240 nM. The same compound gave a 50% inhibitory concentration (IC50) on human cathepsin L of 1.36 ± 0.04 nM.
Regarding `O=C(NC1CC1)C(=O)[C@H](C[C@@H]1CCCNC1=O)NC(=O)[C@H](CC1CCCCC1)NC(=O)c1cc2ccccc2o1` [Example A309, N—((S)-1-(((S)-4-(cyclopropylamino)-3,4-dione-1-((S)-2-oxopiperidin-3-yl)but-2-yl)amino)-3-cyclohexyl-1-oxopropan-2-yl)-benzofuran-2-carboxamide], half-maximal inhibition against human cathepsin L (IC50) was put at 0.63 ± 0.08 nM.
On the same count and under the same terms, then `O=C(NCc1ccccc1)C(=O)[C@H](C[C@@H]1CCCNC1=O)NC(=O)[C@H](Cc1ccc(F)c(F)c1)NC(=O)c1cc2ccccc2o1` [Example A290], with 0.47 ± 0.06 nM.
Take `O=C(NCc1ccccc1)C(=O)[C@H](C[C@@H]1CCCNC1=O)NC(=O)[C@H](CC1CCCCC1)NC(=O)c1cc2ccccc2[nH]1` [Example A5, N—((S)-1-(((S)-4-(benzylamino)-3,4-dione-1-((S)-2-oxopiperidin-3-yl)but-2-yl)amino)-3-cyclohexyl-1-oxopropan-2-yl)-1H-indole-2-carboxamide]: the midpoint of inhibition at human cathepsin L, the IC50, lay at 0.45 ± 0.02 nM.
With `O=C(NCc1ccccc1)C(=O)[C@H](C[C@@H]1CCCNC1=O)NC(=O)[C@H](Cc1ccc(F)cc1)NC(=O)c1cc2ccccc2o1` [Example A289], the inhibition (usually how much of the control response was suppressed) at 1 µM on 2019-nCoV 3CL protease (compound 1 uM, read-out: 1 uM inhibition rate) came to 13.5%. Moreover, at 2019-nCoV 3CL protease (compound 10 uM, read-out: 10 uM inhibition rate), the inhibition at 10 µM came out at 40.8%. In addition, the “tolerability (in words)” value in series [2] (SD rats, 5, 15, 30 mg/kg/day intravenously once a day for 7 consecutive days) is on record as “animals can tolerate”. In addition, the MTD at 7 days in series [2] (both sexes, SD, rat, in vivo, iv) was above 30 mg/kg/day. Moreover, in series [1], the “virus inhibitory activity (in words)” value was “excellent virus inhibitory activity” and the concentration for a half-maximal effect (EC50) was found to be 296 nM. Further, in series [1] (listed as 6009), the “virus inhibitory activity (in words)” value is “better than that of positive control CQ”. This compound also yielded an IC50 against human cathepsin L of 0.66 ± 0.008 nM.
For the compound `O=C(NC1CC1)C(=O)[C@H](C[C@@H]1CCCNC1=O)NC(=O)[C@H](Cc1ccc(F)cc1)NC(=O)c1cc2ccccc2o1` [Example A310, N—((S)-1-(((S)-4-(cyclopropylamino)-3,4-dione-1-((S)-2-oxopiperidin-3-yl)but-2-yl)amino)-3-(4-fluorophenyl)-1-oxopropan-2-yl)-benzofuran-2-carboxamide], the 50% inhibitory concentration (IC50) at human cathepsin L is 0.57 ± 0.01 nM.
As to `O=C(NCc1ccccc1)C(=O)[C@H](C[C@@H]1CCCNC1=O)NC(=O)[C@H](Cc1cccc(F)c1)NC(=O)c1cc2ccccc2o1` [Example A284], the midpoint of inhibition on human cathepsin L, the IC50, lay at 0.45 ± 0.01 nM.
Turning to `CCN(CC)CCCC(C)Nc1ccnc2cc(Cl)ccc12` (stereo not drawn) [CQ], the EC50 in series [3] was 1130 nM.
